“Also recorded” adds a separate entry of the source. Where two headings read alike, the source gives them in different places.
Legend:
[1] = single oral dose of 100 mg, healthy volunteers; cited from earlier work
TrxR/Trx system = target: T1, TrxR/Trx system (Homo sapiens, UniProt P10599); test: NADPH oxidation by TrxR and Trx; format: biochemical; details: increasing concentrations of the substance
T1 construct: 6xHis (N); purchased Sigma (Trx); American Diagnostica (bovine TrxR)
T1 sequence (P10599 1-105): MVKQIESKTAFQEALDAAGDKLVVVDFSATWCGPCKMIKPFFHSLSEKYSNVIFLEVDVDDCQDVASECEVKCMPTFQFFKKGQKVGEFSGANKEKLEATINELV

WT EGFR kinase = WT EGFR kinase (Homo sapiens, UniProt P00533); test: WT EGFR kinase assay (ADP-glo); details: for more inhibition of WT EGFR relative to 4 nM Erlotinib alone: 10 μM ATP; for increased inhibition of WT EGFR relative to 20 nM Erlotinib alone: 100 μM ATP
Recombinant human Trx [2] = target: T2, Recombinant human Trx (Homo sapiens, UniProt P10599); format: biochemical; set-up: 6xHis (N); purchased Sigma (Trx); American Diagnostica (bovine TrxR); details: over MSSH and MSSCE
T2 sequence (P10599 1-105): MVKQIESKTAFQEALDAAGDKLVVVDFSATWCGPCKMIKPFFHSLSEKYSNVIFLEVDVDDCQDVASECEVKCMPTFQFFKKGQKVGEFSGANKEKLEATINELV
Method: See, Luthman M and Holmgren A. Rat liver thioredoxin and thioredoxin reductase: purification and characterization. […] All disulfides were added to reactions as 10x solutions in buffer. The total volume of each reaction was 0.1 mL. Reactions were initiated by the addition of TrxR and were incubated at 25° C. for 40 minutes. Reactions were analyzed using a Molecular Devices SpectraMax Plus UV/vis plate reader and the activity was calculated using a 4 minute linear portion of each assay.

thioredoxin = target: T3, thioredoxin (Homo sapiens, UniProt P10599); test: LC-MS of thioredoxin incubations; format: binding; details: ion at m/z 1288.3
T3 construct: purchased Sigma (SigmaAldrich); host or cells: E. coli

[3] = read-out: Cmax for mesna; 41 g/m^2 Tavocept; cited from earlier work
[4] = system: bovine brain microtubule protein (α-/β-tubulin); test: Microtubule protein polymerization assay (OD350) and electron microscopy; format: biochemical; details: for effect on GTP-catalyzed microtubule protein polymerization: preincubated with microtubule protein on ice 20 minutes, 37° C.
some cell lines = test: Mesna cytotoxicity in vitro (unpublished data)
Recombinant human Trx [5] = target: T2, Recombinant human Trx; test: LC MS of Trypsin digested Trx after incubation with Tavocept, mesna or glutathione; format: binding; set-up: purchased Sigma (SigmaAldrich); host or cells: E. coli; details: fragment CMPTFQFFK (cys73); 10 mM, 4 to 6 hours
[6] = system: non-small cell lung cancer; details: patients >=65 years treated with carboplatin and paclitaxel; cited from earlier work
[7] = target: T4, TrxR/Trx insulin disulfide reduction (Homo sapiens, UniProt P10599); test: TrxR/Trx insulin disulfide reduction assay with isolated Trx species; format: biochemical; details: free Tavocept or glutathione disulfide removed
T4 construct: purchased Sigma; host or cells: E. coli (said of the Sigma Trx)
T4 sequence (P10599 1-105): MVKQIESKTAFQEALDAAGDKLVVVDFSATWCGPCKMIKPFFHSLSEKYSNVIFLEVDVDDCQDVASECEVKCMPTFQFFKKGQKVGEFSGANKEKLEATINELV

Chain of WT EGFR kinase (P00533 25-1210): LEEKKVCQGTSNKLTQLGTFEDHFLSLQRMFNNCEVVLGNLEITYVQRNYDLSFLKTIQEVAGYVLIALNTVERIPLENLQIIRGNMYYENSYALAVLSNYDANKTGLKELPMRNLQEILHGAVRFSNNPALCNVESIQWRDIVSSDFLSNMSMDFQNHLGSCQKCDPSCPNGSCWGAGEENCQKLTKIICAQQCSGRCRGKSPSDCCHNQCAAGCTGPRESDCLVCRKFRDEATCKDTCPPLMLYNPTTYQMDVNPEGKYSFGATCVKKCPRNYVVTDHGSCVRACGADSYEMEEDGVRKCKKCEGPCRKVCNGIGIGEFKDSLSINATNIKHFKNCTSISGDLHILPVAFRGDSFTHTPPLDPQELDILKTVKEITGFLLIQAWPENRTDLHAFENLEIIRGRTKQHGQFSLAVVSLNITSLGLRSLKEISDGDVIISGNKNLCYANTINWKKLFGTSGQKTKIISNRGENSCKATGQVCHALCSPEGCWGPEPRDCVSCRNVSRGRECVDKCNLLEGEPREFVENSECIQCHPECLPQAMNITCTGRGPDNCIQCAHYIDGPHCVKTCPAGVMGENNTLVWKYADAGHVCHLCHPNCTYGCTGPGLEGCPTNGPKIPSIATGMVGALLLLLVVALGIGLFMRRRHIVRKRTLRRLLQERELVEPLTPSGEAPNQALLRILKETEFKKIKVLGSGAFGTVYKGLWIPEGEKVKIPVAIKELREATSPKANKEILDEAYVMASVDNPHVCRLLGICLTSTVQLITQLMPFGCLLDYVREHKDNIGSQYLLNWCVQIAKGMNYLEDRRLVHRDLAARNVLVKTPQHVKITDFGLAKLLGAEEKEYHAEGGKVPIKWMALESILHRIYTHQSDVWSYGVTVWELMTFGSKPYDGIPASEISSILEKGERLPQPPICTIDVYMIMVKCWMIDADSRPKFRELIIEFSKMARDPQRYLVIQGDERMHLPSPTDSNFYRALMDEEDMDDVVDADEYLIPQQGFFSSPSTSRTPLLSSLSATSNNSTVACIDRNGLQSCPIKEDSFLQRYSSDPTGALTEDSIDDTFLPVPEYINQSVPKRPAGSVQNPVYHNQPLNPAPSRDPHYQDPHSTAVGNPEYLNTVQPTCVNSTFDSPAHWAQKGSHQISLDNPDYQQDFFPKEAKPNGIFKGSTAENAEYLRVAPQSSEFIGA

C#Cc1cccc(Nc2ncnc3cc(OCCOC)c(OCCOC)cc23)c1 [Erlotinib]
Cmax [1]: 1390 ng/mL

NC(CSSCCS(=O)(=O)O)C(=O)O (stereo not shown) [MSSC, mesna-cysteine disulfide]
NADPH oxidation by TrxR and Trx (TrxR/Trx system): increases | more inhibition of WT EGFR relative to 4 nM Erlotinib alone (WT EGFR kinase; 0.75 mM + 4 nM Erlotinib): 16% | more inhibition of WT EGFR relative to 4 nM Erlotinib alone (WT EGFR kinase; 1.5 mM + 4 nM Erlotinib): 34% | more inhibition of WT EGFR relative to 4 nM Erlotinib alone (WT EGFR kinase; 2.5 mM + 4 nM Erlotinib): 54% | increased inhibition of WT EGFR relative to 20 nM Erlotinib alone (WT EGFR kinase; 0.2 mM + 20 nM Erlotinib): 17% | increased inhibition of WT EGFR relative to 20 nM Erlotinib alone (WT EGFR kinase; 2.5 mM + 20 nM Erlotinib): 15% | Substrate preference of Trx (Recombinant human Trx [2]): preferred slightly

NC(CSSCCS(=O)(=O)O)C(=O)NCC(=O)O (stereo not shown) [MSSCG, mesna-cysteinyl glycine disulfide]
more inhibition of WT EGFR relative to 4 nM Erlotinib alone (WT EGFR kinase; 0.50 mM + 4 nM Erlotinib): 28% | more inhibition of WT EGFR relative to 4 nM Erlotinib alone (WT EGFR kinase; 0.75 mM + 4 nM Erlotinib (MSSCG series)): 43% | Substrate preference of Trx (Recombinant human Trx [2]): preferred slightly

N[C@@H](CCC(=O)N[C@@H](CSSCCS(=O)(=O)O)C(=O)NCC(=O)O)C(=O)O [MSSG, mesna-glutathione disulfide]
NADPH oxidation by TrxR and Trx (TrxR/Trx system): increases | Substrate preference of Trx (Recombinant human Trx [2]): preferred slightly

NC(CCSSCCS(=O)(=O)O)C(=O)O (stereo not shown) [MSSH, mesna-homocysteine disulfide]
NADPH oxidation by TrxR and Trx (TrxR/Trx system): increases

O=S(=O)([O-])CCS.[Na+] [mesna, 2-mercapto ethane sulfonate]
mesna adduct on thioredoxin fragment CMPTFQFFK (thioredoxin): Cys73-mesna adduct | Cmax [3]: ~323 µM | effect alone on MTP polymerization or paclitaxel-induced hyperpolymerization [4]: no detectable effect | protection against monoaquocisplatin-induced loss of polymerization ([4]; mesna 200 μM preincubated 30 minutes with monoaquocisplatin 36 μM): prevented the monoaquocisplatin-induced loss; also recorded: able to protect | effect on GTP-catalyzed microtubule protein polymerization [4]: did not affect | effect on GTP-catalyzed microtubule protein polymerization ([4]; listed as Mesna): does not affect | Concentrations that can be cytotoxic (some cell lines): ≤ 400 µM | Mesna-Cysteine Adduct Detected? (Recombinant human Trx [5]): presence of a mesna adduct on Cys73 of Trx

bevacizumab [Avastin]
Survival advantage [6]: did not confer a survival advantage

B1: Trx-mesna: Trx covalently modified by a Tavocept-derived mesna moiety (conjugate, UniProt P10599 2-105, looked up)
Thioredoxin: VKQIESKTAFQEALDAAGDKLVVVDFSATWCGPCKMIKPFFHSLSEKYSNVIFLEVDVDDCQDVASECEVKCMPTFQFFKKGQKVGEFSGANKEKLEATINELV
modifications: mesna-modified
notes: Trx covalently modified by a Tavocept-derived mesna moiety
Effect on initial velocity relative to apo-Trx [7]: clear effect on initial velocity

B2: Trx-GSH: Trx modified by glutathione, prepared with glutathione disulfide as control (conjugate, UniProt P10599 2-105, looked up)
Thioredoxin: VKQIESKTAFQEALDAAGDKLVVVDFSATWCGPCKMIKPFFHSLSEKYSNVIFLEVDVDDCQDVASECEVKCMPTFQFFKKGQKVGEFSGANKEKLEATINELV
modifications: glutathione-modified
notes: Trx modified by glutathione, prepared with glutathione disulfide as control
Effect on initial velocity relative to apo-Trx [7]: clear effect on initial velocity
